# Results: patent US9221827B2, “Antimicrobial compounds and methods of making and using the same” (Melinta Therapeutics, Inc., priority 2011, dated 2015)
# System: Escherichia coli strain ATCC25922
# Experiment: standard microdilution assay to determine minimum inhibitory concentrations (MICs)
# Format: cell-based
# Details: Escherichia coli strain ATCC25922, microdilution
# Method in brief: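 Broth microdilution per CLSI (M7-A8/M100-S20), 100 μl final volume, with reference-strain quality control; MIC is the lowest inhibitory concentration. Scored "+"/"−" against a 16 micrograms/ml cutoff, "N/A" where unavailable.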
row,Structure (SMILES),E. coli ATCC25922 MIC
1,CC(N)CCCc1cc(Cl)c(F)c(-c2cc3cn(-c4ccc(C(C)NCCCNC(=N)N)cc4)c(=O)nc3[nH]2)c1 (stereo not shown) [Compound 269],+ (a “+” indicates that the compound has an MIC value of 16 micrograms/ml or less)
2,N=C(N)NCCCNCc1ccc(-n2cc3cc(-c4cc(CCCCN)cc(C(F)(F)F)c4F)[nH]c3nc2=O)cc1 [Compound 111],+ (a “+” indicates that the compound has an MIC value of 16 micrograms/ml or less)
3,CS(=O)(=O)Nc1cc(CCCCN)cc(-c2cc3cn(-c4ccc(CNCCCNC(=N)N)cc4)c(=O)nc3[nH]2)c1 [Compound 48],+ (a “+” indicates that the compound has an MIC value of 16 micrograms/ml or less)
4,Cc1c(Cl)cc(CCCCN)cc1-c1cc2cn(-c3ccc(CNCCCNC(=N)N)cc3)c(=O)nc2[nH]1 [Compound 108],+ (a “+” indicates that the compound has an MIC value of 16 micrograms/ml or less)
5,COc1c(CCCCN)cc(-c2cc3cn(-c4ccc(CNCCCNC(=N)N)cc4)c(=O)nc3[nH]2)cc1OC(F)(F)F [Compound 44],+ (a “+” indicates that the compound has an MIC value of 16 micrograms/ml or less)
6,C[C@H](CNCc1ccc(-n2cc3cc(-c4cc(CCCCN)cc(OC(F)(F)F)c4)[nH]c3nc2=O)cc1)CNC(=N)N [Compound 34],+ (a “+” indicates that the compound has an MIC value of 16 micrograms/ml or less)
7,CCc1cc(CCCCNC(=N)N)cc(-c2cc3cn(-c4ccc(CNCCCNC(=N)N)cc4)c(=O)nc3[nH]2)c1Cl [Compound 285],+ (a “+” indicates that the compound has an MIC value of 16 micrograms/ml or less)
8,Cc1c(-c2cc3cn(-c4ccc(CNCCCNC(=N)N)cc4)c(=O)nc3[nH]2)cc(CCCCN)cc1[N+](=O)[O-] [Compound 120],+ (a “+” indicates that the compound has an MIC value of 16 micrograms/ml or less)
9,C[C@H](NCCCNC(=N)N)c1ccc(-n2cc3cc(-c4cc(CCCC(C)(C)N)cc(C(F)(F)F)c4)[nH]c3nc2=O)cc1 [Compound 318],+ (a “+” indicates that the compound has an MIC value of 16 micrograms/ml or less)
10,CCC(N)COC(C)c1cc(-c2cc3cn(-c4ccc(CNCCCNC(=N)N)cc4)c(=O)nc3[nH]2)cc(C(F)(F)F)c1 (stereo not shown) [Compound 479],+ (a “+” indicates that the compound has an MIC value of 16 micrograms/ml or less)
11,CC(N)CCCc1cc(SC(F)(F)F)c(Cl)c(-c2cc3cn(-c4ccc(C(C)NCCCNC(=N)N)cc4)c(=O)nc3[nH]2)c1 (stereo not shown) [Compound 289],+ (a “+” indicates that the compound has an MIC value of 16 micrograms/ml or less)
12,N=C(N)NCCCNCc1ccc(-n2cc3cc(-c4cc(CCCCN)cc(CN)c4C(F)(F)F)[nH]c3nc2=O)cc1 [Compound 250],+ (a “+” indicates that the compound has an MIC value of 16 micrograms/ml or less)
13,N=C(N)NCCCNCc1ccc(-n2cc3cc(-c4cc(CCCCN)cc(CO)c4C(F)(F)F)[nH]c3nc2=O)cc1 [Compound 246],+ (a “+” indicates that the compound has an MIC value of 16 micrograms/ml or less)
14,COC(=O)C(NCCCNC(=N)N)c1ccc(-n2cc3cc(-c4cc(CCCC(C)N)cc(Cl)c4F)[nH]c3nc2=O)cc1 (stereo not shown) [Compound 494],+ (a “+” indicates that the compound has an MIC value of 16 micrograms/ml or less)
15,N=C(N)NCCCNCc1ccc(-n2cc3cc(-c4cc(CCCCN)cc(C5CCC5)c4)[nH]c3nc2=O)cc1 [Compound 40],+ (a “+” indicates that the compound has an MIC value of 16 micrograms/ml or less)
16,CCc1cc(CCCC(C)N)cc(-c2cc3cn(-c4ccc(C(C)NCCCNC(=N)N)cc4)c(=O)nc3[nH]2)c1F (stereo not shown) [Compound 300],+ (a “+” indicates that the compound has an MIC value of 16 micrograms/ml or less)
17,C[C@H](NCCCNC(=N)N)c1ccc(-n2cc3cc(-c4ccc(C(NC5CN(C(=N)N)C5)C(F)(F)F)cc4)[nH]c3nc2=O)cc1 (stereo partly shown) [Compound 227],+ (a “+” indicates that the compound has an MIC value of 16 micrograms/ml or less)
18,Cc1c(OC(F)F)cc(CCCCN)cc1-c1cc2cn(-c3ccc(CNCCCNC(=N)N)cc3)c(=O)nc2[nH]1 [Compound 237],+ (a “+” indicates that the compound has an MIC value of 16 micrograms/ml or less)
19,CSc1cc(CCCCN)cc(-c2cc3cn(-c4ccc(CNCCCNC(=N)N)cc4)c(=O)nc3[nH]2)c1C(F)(F)F [Compound 262],+ (a “+” indicates that the compound has an MIC value of 16 micrograms/ml or less)
20,NCCCCc1cc(SC(F)(F)F)c(Cl)c(-c2cc3cn(-c4ccc(CNCCCN=C(N)N)cc4)c(=O)nc3[nH]2)c1 [Compound 92],+ (a “+” indicates that the compound has an MIC value of 16 micrograms/ml or less)
21,N=C(N)NCCCNCc1ccc(-n2cc3cc(-c4cc(CS(=O)(=O)CCN)ccc4F)[nH]c3nc2=O)cc1 [Compound 15],+ (a “+” indicates that the compound has an MIC value of 16 micrograms/ml or less)
22,NCCCCc1cc(SC(F)(F)F)cc(-c2cc3cn(-c4ccc(CNCCCN=C(N)N)c(F)c4)c(=O)nc3[nH]2)c1 [Compound 68],+ (a “+” indicates that the compound has an MIC value of 16 micrograms/ml or less)
23,N=C(N)NCCCNCc1ccc(-n2cc3cc(-c4cc(CSCCN)cc(OC(F)(F)F)c4)[nH]c3nc2=O)cc1 [Compound 8],+ (a “+” indicates that the compound has an MIC value of 16 micrograms/ml or less)
24,CC(N)CCCc1cc(SC(F)(F)F)cc(-c2cc3cn(-c4ccc(C(C)NCCCNC(=N)N)cc4)c(=O)nc3[nH]2)c1 (stereo not shown) [Compound 231],+ (a “+” indicates that the compound has an MIC value of 16 micrograms/ml or less)
25,CC(CCCc1cc(Cl)c(F)c(-c2cc3cn(-c4ccc(CNCCCNC(=N)N)cc4)c(=O)nc3[nH]2)c1)N(C)C (stereo not shown) [Compound 298],+ (a “+” indicates that the compound has an MIC value of 16 micrograms/ml or less)
26,CC(N)CCCc1cc(-c2cc3cn(-c4ccc(C(CC(=O)O)NCCCNC(=N)N)cc4)c(=O)nc3[nH]2)cc(C(F)(F)F)c1 (stereo not shown) [Compound 490],− (a “−” indicates that the compound has an MIC value greater than 16 micrograms/ml)
27,N=C(N)NCCCNCc1ccc(-c2c[nH]c(NC(=O)Nc3c(CO)cccc3OCCCN)nc2=O)cc1 [Compound 190],− (a “−” indicates that the compound has an MIC value greater than 16 micrograms/ml)
28,COCc1cc(CCCCN)cc(-c2cc3cn(-c4ccc(CNCCCNC(=N)N)cc4)c(=O)nc3[nH]2)c1 [Compound 3],+ (a “+” indicates that the compound has an MIC value of 16 micrograms/ml or less)

# Same assay, conditions: Escherichia coli strain ATCC25922, standard microdilution assay
row,Structure (SMILES),E. coli ATCC25922 MIC
1,CC(N)CCCc1cc(-c2cc3cn(-c4ccc(CN5CCCCC5=N)cc4)c(=O)nc3[nH]2)cc(C(F)(F)F)c1 (stereo not shown) [Compound 366],− (a “−” indicates that the compound has an MIC value greater than 16 micrograms/ml)
2,Cc1c(-c2cc3cn(-c4ccc(CNCCCNC(=N)N)cc4)c(=O)nc3[nH]2)cc(CCC[C@H](C)N)cc1C(C)C [Compound 446],+ (a “+” indicates that the compound has an MIC value of 16 micrograms/ml or less)
3,CC[C@H](N)CCCc1cc(Cl)c(F)c(-c2cc3cn(-c4ccc(CNCCCNC(=N)N)cc4)c(=O)nc3[nH]2)c1 [Compound 341],+ (a “+” indicates that the compound has an MIC value of 16 micrograms/ml or less)
4,N=C(N)NCCCNCc1ccc(-n2cc3cc(-c4cc(C5CCC(N)CC5)cc(C(F)(F)F)c4)[nH]c3nc2=O)cc1 (mixture of isomers) [Compound 425],+ (a “+” indicates that the compound has an MIC value of 16 micrograms/ml or less)
5,C[C@H](N)CCCc1cc(F)c(F)c(-c2cc3cn(-c4ccc([C@H](C)NCCCNC(=N)N)cc4)c(=O)nc3[nH]2)c1 [Compound 462],+ (a “+” indicates that the compound has an MIC value of 16 micrograms/ml or less)
6,CC(C)Cc1cc(CCC[C@H](C)N)cc(-c2cc3cn(-c4ccc(CNCCCNC(=N)N)cc4)c(=O)nc3[nH]2)c1F [Compound 431],+ (a “+” indicates that the compound has an MIC value of 16 micrograms/ml or less)
7,Cc1c(CC(C)C)cc(CCC[C@H](C)N)cc1-c1cc2cn(-c3ccc(CNCCCNC(=N)N)cc3)c(=O)nc2[nH]1 [Compound 452],+ (a “+” indicates that the compound has an MIC value of 16 micrograms/ml or less)
8,CC(CN)SCc1cc(SC(F)(F)F)cc(-c2cc3cn(-c4ccc(CNCCCNC(=N)N)cc4)c(=O)nc3[nH]2)c1 (stereo not shown) [Compound 336],+ (a “+” indicates that the compound has an MIC value of 16 micrograms/ml or less)
9,C[C@@H](N)CCc1cc(SC(F)(F)F)cc(-c2cc3cn(-c4ccc(CNCCCNC(=N)N)cc4)c(=O)nc3[nH]2)c1 [Compound 397],+ (a “+” indicates that the compound has an MIC value of 16 micrograms/ml or less)
10,CC(NCCCNC(=N)N)c1ccc(-n2cc3cc(-c4cc(OC(F)(F)F)cc(C5CCC(CN)O5)c4)[nH]c3nc2=O)cc1 (stereo not shown) [Compound 438],+ (a “+” indicates that the compound has an MIC value of 16 micrograms/ml or less)
11,CC(C)(N)CCCc1cc(SC(F)(F)F)cc(-c2cc3cn(-c4ccc(CN)cc4)c(=O)nc3[nH]2)c1 [Compound 335],+ (a “+” indicates that the compound has an MIC value of 16 micrograms/ml or less)
12,CC(N)CCCc1cc(Cl)c(F)c(-c2cc3cn(-c4ccc(C(C)NCCCNC(N)=NC5CNC5)cc4)c(=O)nc3[nH]2)c1 (stereo not shown) [Compound 383],+ (a “+” indicates that the compound has an MIC value of 16 micrograms/ml or less)
